Reference: article PMC6359137 (2019)

System: AFM1 aptamer (DNA, aptamer) ACTGCTAGAGATTTTCCACAT
Assay: strand displacement, Exo III-amplified NMM fluorescence
Conditions: K+ 75 mM, Mg2+ 10 mM; C-strand (S2) displaced; highest tested 1 ng mL^-1; 37 °C; compared with blank milk

With C[C@@H]1Cc2c(Cl)cc(C(=O)N[C@@H](Cc3ccccc3)C(=O)O)c(O)c2C(=O)O1 the binding was “no”.
